According to PMC5996347, “2-Mercapto-Quinazolinones as Inhibitors of Type II NADH Dehydrogenase and Mycobacterium tuberculosis: Structure–Activity Relationships, Mechanism of Action and Absorption, Distribution, Metabolism, and Excretion Characterization” (ACS Infectious Diseases, 2018):
Values after ≈ are worked out from the molar mass of the structure shown.

Tests used:
[1] = tested on: M. tuberculosis H37Rv; experiment: H37Rv MIC in GAST medium; assay type: cell-based, Mycobacterium tuberculosis; conditions: Mycobacterium tuberculosis, H37RV; read-out: GAST MIC
[2] = tested on: M. tuberculosis H37Rv; experiment: microbe, parasite or virus in culture; assay type: cell-based; conditions: Mycobacterium tuberculosis, read-out: 7H9-ADC MIC
[3] = Calculated properties (StarDrop)
[4] = target: T1, recombinant MBP-MtNdh (MTb NDH-2) (Mycobacterium tuberculosis, UniProt P95160); experiment: Ndh activity assay (NADH oxidation at 340 nm); assay type: biochemical; conditions: NADH 250 μM, Q2 40 μM; mean ± SD, Figure 6 inset; read-out: IC50 against MBP-MtNdh
T1 construct: The ORF corresponding to Rv1854c was codon optimized for E. coli; made in house; host or cells: E. coli BL21 (DE3) pLysS

[5] = assay type: in vitro ADME; conditions: female, CD1, mouse, 0.5 μM, pH 7.4
Procedure: Test compound (0.5 μM) was incubated with female CD1 mouse liver microsomes (Xenotech LLC; 0.5 mg/mL, 50 mM potassium phosphate buffer, pH 7.4), and the reaction started with addition of excess NADPH (8 mg/mL, 50 mM potassium phosphate buffer, pH 7.4). Immediately, at time zero, and then at 3, 6, 9, 15, and 30 min, an aliquot (50 μL) of the incubation mixture was removed and mixed with acetonitrile (100 μL) to stop the reaction. Internal standard was added to all samples; the samples were centrifuged to sediment precipitated protein, and the plates were then sealed prior to UPLC-MS/MS analysis using a Quattro Premier XE (Waters Corporation, USA). XLfit (IDBS, UK) was used to calculate the exponential decay and consequently the rate constant (k) from the ratio of peak area of test compound to internal standard at each time point. The rate of intrinsic clearance (Cli) of each test compound was then calculated using the following calculation. [drawing 1] where V (mL/mg protein) is the incubation volume/mg protein added and microsomal protein yield is taken as 52.5 mg protein/g liver. Verapamil (0.5 μM) was used as a positive control to confirm acceptable assay performance.

[6] = physchem; assay type: physicochemical; conditions: for solubility kinetic: water, kinetic from dmso stock
Procedure: The aqueous solubility of the test compounds was measured using laser nephelometry. Compounds were subject to serial dilution from 10 to 0.5 mM in DMSO. An aliquot was then mixed with Milli-Q water to obtain an aqueous dilution plate with a final concentration range of 250–12 μM, with a final DMSO concentration of 2.5%. Triplicate aliquots were transferred to a flat bottomed polystyrene plate which was immediately read on the NEPHELOstar (BMG Lab Technologies). The amount of laser scatter caused by insoluble particulates (relative nephelometry units, RNU) was plotted against compound concentration using a segmental regression fit, with the point of inflection being quoted as the compounds aqueous solubility (μM).

T1 sequence (P95160 whole entry): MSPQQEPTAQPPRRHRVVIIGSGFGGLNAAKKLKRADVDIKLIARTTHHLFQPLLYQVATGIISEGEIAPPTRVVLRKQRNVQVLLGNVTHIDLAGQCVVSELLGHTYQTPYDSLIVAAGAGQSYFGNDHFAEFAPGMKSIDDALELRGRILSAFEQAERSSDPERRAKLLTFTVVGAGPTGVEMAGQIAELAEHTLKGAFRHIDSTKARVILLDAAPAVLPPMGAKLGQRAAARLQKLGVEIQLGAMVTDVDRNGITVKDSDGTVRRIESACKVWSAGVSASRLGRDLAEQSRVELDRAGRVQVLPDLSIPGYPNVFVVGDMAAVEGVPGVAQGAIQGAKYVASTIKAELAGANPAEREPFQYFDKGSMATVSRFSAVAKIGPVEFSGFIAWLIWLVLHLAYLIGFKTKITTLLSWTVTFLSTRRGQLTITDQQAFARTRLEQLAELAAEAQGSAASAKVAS

Compound | MIC [1] [µM] | MIC [2] [µM] | PFI [3] | IC50 [4] [µM] | Microsomal Cli, mouse [5] [mL/min/g] | solubility kinetic [6] [µM] | Kinetic solubility [6] [µM]
Cc1csc2nc(SCC(=O)NC3CCCCC3)[nH]c(=O)c12 [Compound 3] | 43 (≈ 14.5 µg/mL) | > 50 | 4.7 | 0.21 ± 0.025 | – | – | –
O=C(CSc1nc2ccccc2c(=O)[nH]1)NC1CCCCCC1 [Compound 4, N-Cycloheptyl-2-((4-oxo-3,4-dihydroquinazolin-2-yl)thio)acetamide] | 0.3 (≈ 0.0994 µg/mL) | 0.6 (≈ 0.199 µg/mL) | – | – | 6.4 | 39 (≈ 12.9 µg/mL) | –
O=C(CSc1nc2ccccc2c(=O)[nH]1)NC1CCCC1 [Compound 5, N-Cyclopentyl-2-((4-oxo-3,4-dihydroquinazolin-2-yl)thio)acetamide] | 1 (≈ 0.303 µg/mL) | 1.8 (≈ 0.546 µg/mL) | – | – | 2.5 | 101 (≈ 30.6 µg/mL) | –
O=C(CSc1nc2ccccc2c(=O)[nH]1)NC1CCC1 [Compound 6, N-Cyclobutyl-2-((4-oxo-3,4-dihydroquinazolin-2-yl)thio)acetamide] | 1.6 (≈ 0.463 µg/mL) | 1.6 (≈ 0.463 µg/mL) | – | – | 1.8 | 219 (≈ 63.4 µg/mL) | –
O=C(CSc1nc2ccccc2c(=O)[nH]1)NC1CCCCC1(F)F (stereo not shown) [Compound 8, N-(2,2-Difluorocyclohexyl)-2-((4-oxo-3,4-dihydroquinazolin-2-yl)thio)acetamide] | 9.4 (≈ 3.32 µg/mL) | 12.5 (≈ 4.42 µg/mL) | – | – | 2.3 | 219 (≈ 77.4 µg/mL) | –
O=C(CSc1nc2ccccc2c(=O)[nH]1)NC1CCCC(F)(F)C1 (stereo not shown) [Compound 9, N-(3,3-Difluorocyclohexyl)-2-((4-oxo-3,4-dihydroquinazolin-2-yl)thio)acetamide] | 4.7 (≈ 1.66 µg/mL) | 4.7 (≈ 1.66 µg/mL) | – | – | 2.9 | 187 (≈ 66.1 µg/mL) | –
O=C(CSc1nc2ccccc2c(=O)[nH]1)NCC1CCCCC1 [Compound 10, N-(Cyclohexylmethyl)-2-((4-oxo-3,4-dihydroquinazolin-2-yl)thio)acetamide] | 0.2 (≈ 0.0663 µg/mL) | 0.3 (≈ 0.0994 µg/mL) | – | – | 5.9 | – | –
CN(C(=O)CSc1nc2ccccc2c(=O)[nH]1)C1CCCCC1 [Compound 14, N-Cyclohexyl-N-methyl-2-((4-oxo-3,4-dihydroquinazolin-2-yl)thio)acetamide] | 50 (≈ 16.6 µg/mL) | 50 (≈ 16.6 µg/mL) | – | – | 13 | – | 250
CC(Sc1nc2ccccc2c(=O)[nH]1)C(=O)NC1CCCCC1 (stereo not shown) [Compound 15, N-Cyclohexyl-2-((4-oxo-3,4-dihydroquinazolin-2-yl)thio)propanamide] | 50 (≈ 16.6 µg/mL) | 50 (≈ 16.6 µg/mL) | – | – | 7.5 | – | 250
CC(Sc1nc2ccccc2c(=O)[nH]1)C(=O)N(C)C1CCCCC1 (stereo not shown) [Compound 16, N-Cyclohexyl-N-methyl-2-((4-oxo-3,4-dihydroquinazolin-2-yl)thio)propanamide] | 50 (≈ 17.3 µg/mL) | 50 (≈ 17.3 µg/mL) | – | – | 50 | 250 (≈ 86.4 µg/mL) | –
O=C(CNc1nc2ccccc2c(=O)[nH]1)NC1CCCCC1 [Compound 17, N-Cyclohexyl-2-((4-oxo-3,4-dihydroquinazolin-2-yl)amino)acetamide] | 50 (≈ 15 µg/mL) | 50 (≈ 15 µg/mL) | – | – | 2.1 | 250 (≈ 75.1 µg/mL) | –
O=C(COc1nc2ccccc2c(=O)[nH]1)NC1CCCCC1 [Compound 18, N-Cyclohexyl-2-((4-oxo-3,4-dihydroquinazolin-2-yl)oxy)acetamide] | 25 (≈ 7.53 µg/mL) | 50 (≈ 15.1 µg/mL) | – | – | – | – | –
O=C(CCc1nc2ccccc2c(=O)[nH]1)NC1CCCCC1 [Compound 19, N-Cyclohexyl-3-(4-oxo-3,4-dihydroquinazolin-2-yl)propanamide] | 50 (≈ 15 µg/mL) | 50 (≈ 15 µg/mL) | – | – | 1.6 | 250 (≈ 74.8 µg/mL) | –
Cn1c(SCC(=O)NC2CCCCC2)nc2ccccc2c1=O [Compound 20, N-Cyclohexyl-2-((3-methyl-4-oxo-3,4-dihydroquinazolin-2-yl)thio)acetamide] | 50 (≈ 16.6 µg/mL) | 50 (≈ 16.6 µg/mL) | – | – | 11 | – | –
O=C(CSc1ncc2ccccc2n1)NC1CCCCC1 [Compound 21, N-Cyclohexyl-2-(quinazolin-2-ylthio)acetamide] | 50 (≈ 15.1 µg/mL) | 50 (≈ 15.1 µg/mL) | – | – | – | – | –
Nc1nc(SCC(=O)NC2CCCCC2)nc2ccccc12 [Compound 22, 2-((4-Aminoquinazolin-2-yl)thio)-N-cyclohexylacetamide] | 50 (≈ 15.8 µg/mL) | 50 (≈ 15.8 µg/mL) | – | – | – | – | –
O=C(CSc1nc2c(c(=O)[nH]1)CCCC2)NC1CCCCC1 [Compound 23, N-Cyclohexyl-2-((4-oxo-3,4,5,6,7,8-hexahydroquinazolin-2-yl)thio)acetamide] | 1.2 (≈ 0.386 µg/mL) | 1.6 (≈ 0.514 µg/mL) | – | – | 6.6 | 250 (≈ 80.4 µg/mL) | –
O=C(CSc1nc2c(c(=O)[nH]1)CCC2)NC1CCCCC1 [Compound 24, N-Cyclohexyl-2-((4-oxo-4,5,6,7-tetrahydro-3H-cyclopenta[d]pyrimidin-2-yl)thio)acetamide] | 1.6 (≈ 0.492 µg/mL) | 1.2 (≈ 0.369 µg/mL) | – | – | 1.2 | 250 (≈ 76.9 µg/mL) | –
Cc1nc(SCC(=O)NC2CCCCC2)nc(O)c1C [Compound 25, N-Cyclohexyl-2-((4,5-dimethyl-6-oxo-1,6-dihydropyrimidin-2-yl)thio)acetamide] | 6.3 (≈ 1.86 µg/mL) | 12.5 (≈ 3.69 µg/mL) | – | – | 1.1 | 250 (≈ 73.9 µg/mL) | –
O=C(CSc1nc2ccc(F)cc2c(=O)[nH]1)NC1CCC(F)(F)CC1 [Compound 26, N-(4,4-Difluorocyclohexyl)-2-((6-fluoro-4-oxo-3,4-dihydroquinazolin-2-yl)thio)acetamide] | 0.6 (≈ 0.223 µg/mL) | 0.8 (≈ 0.297 µg/mL) | – | – | 2.2 | 55 (≈ 20.4 µg/mL) | –
O=C(CSc1nc2cnccc2c(=O)[nH]1)NC1CCC(F)(F)CC1 [Compound 27, N-(4,4-Difluorocyclohexyl)-2-((4-oxo-3,4-dihydropyrido[3,4-d]pyrimidin-2-yl)thio)acetamide] | 9.4 (≈ 3.33 µg/mL) | 2.5 (≈ 0.886 µg/mL) | – | – | 1.6 | 250 (≈ 88.6 µg/mL) | –
